According to patent publication US20020110523A1, “Methods for screening or monitoring the risk of cardiovascular disease relating to sex steroid compound or composition intake and methods for screening sex steroid compound” (priority 1996, published 2002):
Marks after values point to notes of the source that are not given here.

Columns and labels:
[1] = review of human studies; cited from earlier work
[2] = among third-generation OCs; cited from earlier work
[3] = tested on: C-reactive protein (CRP); assay: CRP in postmenopausal women with type 2 diabetes on estrogen replacement therapy, randomized placebo-controlled trial (Example III); assay type: in vivo, human
[4] = tested on: SHBG, cortisol binding protein (CBP), ceruloplasmin and HDL-cholesterol; details: cited from earlier work; for estrogenic effect: in man; for androgenic activity: on the basis of a change in SHBG and HDL cholesterol levels
[5] = tested on: ceruloplasmin; details: FIG. 1 of Ruokonen and Kaar; cited from earlier work

C#C[C@]1(OC(C)=O)CC[C@H]2[C@@H]3CCC4=CC(=NO)CC[C@@H]4[C@H]3CC[C@@]21CC (mixture of isomers) [norgestimate]
androgenicity and antiestrogenic potential [1]: minimal amounts of androgenicity and antiestrogenic potential | androgenic profile in vitro [2]: least androgenic profile

C[C@]12CC[C@@H]3c4ccc(O)cc4CC[C@H]3[C@@H]1CC[C@@H]2O [17 beta estradiol]
effect on CRP ([3]; 2 mg/d orally for six weeks): induced an increase in CRP | CRP-values, Median ([3]; 6 weeks, 2 mg/d orally, p = 0.0027 compared to pretreatment): 6.70# | CRP-values, Median ([3]; Pretreatment (baseline of the treatment group), postmenopausal women with type 2 diabetes): 4.13

C#C[C@]1(O)CC[C@H]2[C@@H]3CCC4=CCCC[C@@H]4[C@H]3C(=C)C[C@@]21CC [desogestrel]
androgenicity and antiestrogenic potential [1]: minimal amounts of androgenicity and antiestrogenic potential | androgenicity compared among the three compounds ([4]; desogestrel, levonorgestrel and lynestrenol compared): least androgenic | estrogenic effect [4]: no estrogenic effect | androgenic activity [4]: androgenic activity | effect on ceruloplasmin concentration [5]: does not induce this effect or does so to an insufficient degree

C#C[C@]1(O)C=C[C@H]2[C@@H]3CCC4=CC(=O)CC[C@@H]4[C@H]3CC[C@@]21CC [gestodene]
androgenicity and antiestrogenic potential [1]: minimal amounts of androgenicity and antiestrogenic potential

C#C[C@]1(O)CC[C@H]2[C@@H]3CCC4=CCCC[C@@H]4[C@H]3CC[C@@]21C [lynestrenol]
estrogenic effect [4]: weakly estrogenic | androgenic activity [4]: androgenic activity
